Experimental data reported in patent US20230072683A1, “PYRIDO-PYRIMIDIN DERIVATIVES AND PHARMACEUTICAL COMPOSITION, FOR USE IN PREVENTING OR TREATING PI3 KINASE RELATED DISEASES, COMPRISING SAME AS ACTIVE INGREDIENT” (BORYUNG PHARMACEUTICAL CO., LTD, priority 2019, published 2023).
Read-outs that look alike come from different tables or passages of the source.

Tests used:
[1] = target: PI3K-δ (PI3K(p1108/p857) (h)) (Homo sapiens, UniProt O00329); assay: Evaluation of inhibitory activity against PI3K-δ (HTRF kinase assay); type: biochemical; settings: for inhibition at 0.01 µM: compound concentration 0.01 μM, read-out: EXP_VALUE(% Inhibition) PI3K-δ 0.01 μM; for inhibition at 0.1 µM: read-out: EXP_VALUE(% Inhibition) PI3K-δ 0.1 μM
Summary of the method: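 HTRF read-out (665/620 nm ratio ×10000) used Eu-labelled anti-GST, GST-tagged GRP1 PH domain and streptavidin-allophycocyanin after EDTA/PIP3 stop.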

[2] = target: DNA-PK(h) (Homo sapiens, UniProt P78527); assay: Evaluation of inhibitory activity against DNA-PK (HTRF kinase assay, GST-cMyc-p53 substrate); type: biochemical; settings: for inhibition at 0.01 µM: compound concentration 0.01 μM, read-out: EXP_VALUE(% Inhibition) DNA-PK(h) 0.01 μM; for inhibition at 0.1 µM: read-out: EXP_VALUE(% Inhibition) DNA-PK(h) 0.1 μM
Summary of the method: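 Human DNA-PK with 50 μM GST-cMyc-p53 substrate; reaction started with Mg/ATP, run 30 min at room temperature, stopped with EDTA. Phospho-Ser15 p53 detected by HTRF (Eu anti-phospho-Ser15, d2 anti-GST), signal = 10000×(Em 665/Em 620).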

PI3K-δ (PI3K(p1108/p857) (h)), sequence (O00329 whole entry, the tested form may be a part): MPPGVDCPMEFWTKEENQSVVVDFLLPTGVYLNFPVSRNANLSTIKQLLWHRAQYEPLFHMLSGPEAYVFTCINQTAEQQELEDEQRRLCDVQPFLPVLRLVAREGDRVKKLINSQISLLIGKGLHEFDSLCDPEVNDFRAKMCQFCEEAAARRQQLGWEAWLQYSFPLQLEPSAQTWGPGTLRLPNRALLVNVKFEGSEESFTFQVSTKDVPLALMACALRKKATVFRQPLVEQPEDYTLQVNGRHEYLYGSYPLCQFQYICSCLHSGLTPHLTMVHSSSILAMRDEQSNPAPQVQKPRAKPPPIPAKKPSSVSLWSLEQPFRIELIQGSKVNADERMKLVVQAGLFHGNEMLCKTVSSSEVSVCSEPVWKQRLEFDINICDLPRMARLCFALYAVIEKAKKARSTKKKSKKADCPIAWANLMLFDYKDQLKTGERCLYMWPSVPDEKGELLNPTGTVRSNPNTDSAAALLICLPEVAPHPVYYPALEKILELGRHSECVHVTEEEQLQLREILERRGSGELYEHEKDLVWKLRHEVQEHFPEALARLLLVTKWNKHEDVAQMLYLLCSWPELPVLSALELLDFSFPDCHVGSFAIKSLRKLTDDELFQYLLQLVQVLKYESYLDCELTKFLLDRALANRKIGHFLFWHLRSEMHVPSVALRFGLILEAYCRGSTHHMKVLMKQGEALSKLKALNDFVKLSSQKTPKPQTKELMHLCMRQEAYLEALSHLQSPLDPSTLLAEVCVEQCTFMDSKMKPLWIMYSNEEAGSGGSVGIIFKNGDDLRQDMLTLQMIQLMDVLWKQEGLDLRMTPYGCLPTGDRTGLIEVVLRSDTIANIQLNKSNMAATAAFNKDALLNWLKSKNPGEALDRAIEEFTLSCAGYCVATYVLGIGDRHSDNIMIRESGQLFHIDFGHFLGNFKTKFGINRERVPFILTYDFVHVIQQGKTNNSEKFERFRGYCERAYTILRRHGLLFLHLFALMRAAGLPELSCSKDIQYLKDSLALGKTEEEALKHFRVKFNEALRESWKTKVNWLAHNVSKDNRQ
PI3K-δ (PI3K(p1108/p857) (h)), sequence (P27986 whole entry partner, the tested form may be a part): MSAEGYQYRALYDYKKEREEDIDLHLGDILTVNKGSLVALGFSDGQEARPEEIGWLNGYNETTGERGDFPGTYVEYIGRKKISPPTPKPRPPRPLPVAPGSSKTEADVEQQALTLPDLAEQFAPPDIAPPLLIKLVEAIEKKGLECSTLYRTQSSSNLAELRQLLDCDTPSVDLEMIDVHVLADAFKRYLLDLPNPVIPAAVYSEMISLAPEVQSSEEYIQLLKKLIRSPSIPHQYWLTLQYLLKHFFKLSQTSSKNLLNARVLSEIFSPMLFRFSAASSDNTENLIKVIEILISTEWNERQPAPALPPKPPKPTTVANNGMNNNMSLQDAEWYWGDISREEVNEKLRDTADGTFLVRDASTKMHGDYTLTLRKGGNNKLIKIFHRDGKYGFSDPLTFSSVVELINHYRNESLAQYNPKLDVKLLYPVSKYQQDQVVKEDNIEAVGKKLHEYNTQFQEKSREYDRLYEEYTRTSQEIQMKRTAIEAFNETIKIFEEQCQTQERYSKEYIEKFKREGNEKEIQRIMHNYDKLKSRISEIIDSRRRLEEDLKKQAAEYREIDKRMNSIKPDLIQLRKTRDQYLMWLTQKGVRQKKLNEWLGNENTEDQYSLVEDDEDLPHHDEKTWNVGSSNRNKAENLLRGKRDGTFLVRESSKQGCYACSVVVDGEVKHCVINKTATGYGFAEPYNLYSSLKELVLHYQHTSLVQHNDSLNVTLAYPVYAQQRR

inhibition at 0.01 µM [1]	inhibition at 0.01 µM [2]	inhibition at 0.1 µM ([1]; compound concentration 0.1 μM)	inhibition at 0.1 µM ([2]; compound concentration 0.1 μM)	inhibition at 0.1 µM ([1]; compound at 0.1 μM)	inhibition at 0.1 µM ([2]; compound at 0.1 μM)	Structure (SMILES)
24%	1%					C[C@H](Nc1ncnc2[nH]ccc(=O)c12)c1c(Cl)c2cccc(-c3nc(N)nc(N)n3)c2c(=O)n1-c1ccccc1 [Example 293, (S)-4-((1-(4-chloro-8-(4,6-diamino-1,3,5-triazin-2-yl)-1-oxo-2-phenyl-1,2-dihydroisoquinolin-3-yl)ethyl)amino)pyrido[2,3-d]pyrimidin-5(8H)-one]
42%	27%					C[C@H](Nc1ncnc2[nH]ccc(=O)c12)c1c(Cl)c2cccc(-c3ccc(C4CC4)nc3)c2c(=O)n1-c1ccccc1 [Example 46, (S)-4-((1-(4-chloro-8-(6-cyclopropylpyridin-3-yl)-1-oxo-2-phenyl-1,2-dihydroisoquinolin-3-yl)ethyl)amino)pyrido[2,3-d]pyrimidin-5(8H)-one]
				71%	16%	C[C@H](Nc1ncnc2[nH]ccc(=O)c12)c1c(Cl)c2cccc(-c3cnc(Cl)nc3)c2c(=O)n1-c1ccccc1 [Example 402, (S)-4-((1-(4-chloro-8-(2-chloropyrimidin-5-yl)-1-oxo-2-phenyl-1,2-dihydroisoquinolin-3-yl)ethyl)amino)pyrido[2,3-d]pyrimidin-5(8H)-one]
65%	7%					Cc1c[nH]nc1-c1cccc2c(Cl)c([C@H](C)Nc3ncnc4[nH]ccc(=O)c34)n(-c3ccccc3)c(=O)c12 [Example 244, (S)-4-((1-(4-chloro-8-(4-methyl-1H-pyrazol-3-yl)-1-oxo-2-phenyl-1,2-dihydroisoquinolin-3-yl)ethyl)amino)pyrido[2,3-d]pyrimidin-5(8H)-one]
27%	34%	75%	76%			C[C@H](Nc1ncnc2[nH]ccc(=O)c12)c1c(Cl)c2cccc(-c3nnn[nH]3)c2c(=O)n1-c1ccccc1 [Example 352, (S)-4-((1-(4-chloro-1-oxo-2-phenyl-8-(1H-tetrazol-5-yl)-1,2-dihydroisoquinolin-3-yl)ethyl)amino)pyrido[2,3-d]pyrimidin-5(8H)-one]
				90%	32%	C[C@H](Nc1ncnc2[nH]ccc(=O)c12)c1c(Cl)c2cccc(C(F)(F)F)c2c(=O)n1-c1ccccc1 [Example 389, (S)-4-((1-(4-chloro-1-oxo-2-phenyl-8-(trifluoromethyl)-1,2-dihydroisoquinolin-3-yl)ethyl)amino)pyrido[2,3-d]pyrimidin-5(8H)-one]
35%	66%					COc1cc(-c2cccc3c(Cl)c([C@H](C)Nc4ncnc5[nH]ccc(=O)c45)n(-c4ccccc4)c(=O)c23)cnc1OC [Example 170, (S)-4-((1-(4-chloro-8-(5,6-dimethoxypyridin-3-yl)-1-oxo-2-phenyl-1,2-dihydroisoquinolin-3-yl)ethyl)amino)pyrido[2,3-d]pyrimidin-5(8H)-one]
17%	16%	44%	41%			C[C@H](Nc1ncnc2[nH]ccc(=O)c12)c1c(Cl)c2cccc(-c3ccc(Cl)c(Cl)c3)c2c(=O)n1-c1ccccc1 [Example 71, (S)-4-((1-(4-chloro-8-(3,4-dichlorophenyl)-1-oxo-2-phenyl-1,2-dihydroisoquinolin-3-yl)ethyl)amino)pyrido[2,3-d]pyrimidin-5(8H)-one]
89%	60%					C[C@H](Nc1ncnc2[nH]ccc(=O)c12)c1c(Cl)c2cccc(-c3ccc4nncn4c3)c2c(=O)n1-c1ccccc1 [Example 37, (S)-4-((1-(8-([1,2,4]triazolo[4,3-a]pyridin-6-yl)-4-chloro-1-oxo-2-phenyl-1,2-dihydroisoquinolin-3-yl)ethyl)amino)pyrido[2,3-d]pyrimidin-5(8H)-one]
74%	70%	94%	96%			Cc1cc(-c2cccc3c(Cl)c([C@H](C)Nc4ncnc5[nH]ccc(=O)c45)n(-c4ccccc4)c(=O)c23)cc(C)c1O [Example 126, (S)-4-((1-(4-chloro-8-(4-hydroxy-3,5-dimethylphenyl)-1-oxo-2-phenyl-1,2-dihydroisoquinolin-3-yl)ethyl)amino)pyrido[2,3-d]pyrimidin-5(8H)-one]
68%	75%	98%	98%			Cc1ccc(-c2cccc3c(Cl)c([C@H](C)Nc4ncnc5[nH]ccc(=O)c45)n(-c4ccccc4)c(=O)c23)cn1 [Example 257, (S)-4-((1-(4-chloro-8-(6-methylpyridin-3-yl)-1-oxo-2-phenyl-1,2-dihydroisoquinolin-3-yl)ethyl)amino)pyrido[2,3-d]pyrimidin-5(8H)-one]

Continued, molecule first:

Structure (SMILES)	inhibition at 0.01 µM [1]	inhibition at 0.01 µM [2]	inhibition at 0.1 µM ([1]; compound concentration 0.1 μM)	inhibition at 0.1 µM ([2]; compound concentration 0.1 μM)	inhibition at 0.1 µM ([1]; compound at 0.1 μM)	inhibition at 0.1 µM ([2]; compound at 0.1 μM)
C[C@H](Nc1ncnc2[nH]ccc(=O)c12)c1c(Cl)c2cccc(N3CCN(C)CC3)c2c(=O)n1-c1ccccc1 [Example 250, (S)-4-((1-(4-chloro-8-(4-methylpiperazin-1-yl)-1-oxo-2-phenyl-1,2-dihydroisoquinolin-3-yl)ethyl)amino)pyrido[2,3-d]pyrimidin-5(8H)-one]	32%	0%	82%	57%		
C[C@H](Nc1ncnc2[nH]ccc(=O)c12)c1c(Cl)c2cccc(-c3ccc(Oc4ccccc4)nc3)c2c(=O)n1-c1ccccc1 [Example 185, (S)-4-((1-(4-chloro-1-oxo-8-(6-phenoxypyridin-3-yl)-2-phenyl-1,2-dihydroisoquinolin-3-yl)ethyl)amino)pyrido[2,3-d]pyrimidin-5(8H)-one]	95%	33%				
C[C@H](Nc1ncnc2[nH]ccc(=O)c12)c1c(Cl)c2cccc(-c3ccc4cnoc4c3)c2c(=O)n1-c1ccccc1 [Example 24, (S)-4-((1-(8-(benzo[d]isoxazol-6-yl)-4-chloro-1-oxo-2-phenyl-1,2-dihydroisoquinolin-3-yl)ethyl)amino)pyrido[2,3-d]pyrimidin-5(8H)-one]	61%	85%				
C[C@H](Nc1ncnc2[nH]ccc(=O)c12)c1c(Cl)c2cccc(-c3cccc(CC#N)c3)c2c(=O)n1-c1ccccc1 [Example 91, (S)-2-(3-(4-chloro-1-oxo-3-(1-((5-oxo-5,8-dihydropyrido[2,3-d]pyrimidin-4-yl)amino)ethyl)-2-phenyl-1,2-dihydroisoquinolin-8-yl)phenyl)acetonitrile]	89%	77%	101%	98%		
C[C@H](Nc1ncnc2[nH]ccc(=O)c12)c1c(Cl)c2cccc(-c3ccc(SC4CC4)cc3)c2c(=O)n1-c1ccccc1 [Example 152, (S)-4-((1-(4-chloro-8-(4-(cyclopropylthio)phenyl)-1-oxo-2-phenyl-1,2-dihydroisoquinolin-3-yl)ethyl)amino)pyrido[2,3-d]pyrimidin-5(8H)-one]	58%	36%				
C[C@H](Nc1ncnc2[nH]ccc(=O)c12)c1c(Cl)c2cccc(S(=O)(=O)C3COC3)c2c(=O)n1-c1ccccc1 [Example 432, (S)-4-((1-(4-chloro-8-(oxetan-3-ylsulfonyl)-1-oxo-2-phenyl-1,2-dihydroisoquinolin-3-yl)ethyl)amino)pyrido[2,3-d]pyrimidin-5(8H)-one]					87%	47%
C[C@H](Nc1ncnc2[nH]ccc(=O)c12)c1c(Cl)c2cccc(-c3ccc(N(C)C)cc3)c2c(=O)n1-c1ccccc1 [Example 72, (S)-4-((1-(4-chloro-8-(4-(dimethylamino)phenyl)-1-oxo-2-phenyl-1,2-dihydroisoquinolin-3-yl)ethyl)amino)pyrido[2,3-d]pyrimidin-5(8H)-one]	99%	58%	112%	96%		
C[C@H](Nc1ncnc2[nH]ccc(=O)c12)c1c(Cl)c2cccc(Nc3ccccn3)c2c(=O)n1-c1ccccc1 [Example 348, (S)-4-((1-(4-chloro-1-oxo-2-phenyl-8-(pyridin-2-ylamino)-1,2-dihydroisoquinolin-3-yl)ethyl)amino)pyrido[2,3-d]pyrimidin-5(8H)-one]	5%	-1%				
CC(Oc1cccc2c(Cl)c([C@H](C)Nc3ncnc4[nH]ccc(=O)c34)n(-c3ccccc3)c(=O)c12)c1ccncc1 (stereo partly drawn) [Example 368, 4-(((1S)-1-(4-chloro-1-oxo-2-phenyl-8-(1-(pyridin-4-yl)ethoxy)-1,2-dihydroisoquinolin-3-yl)ethyl)amino)pyrido[2,3-d]pyrimidin-5(8H)-one]	72%	50%	94%	85%		
C[C@H](Nc1ncnc2[nH]ccc(=O)c12)c1c(Cl)c2cccc(-c3ccc(N4CCCCC4)nc3)c2c(=O)n1-c1ccccc1 [Example 194, (S)-4-((1-(4-chloro-1-oxo-2-phenyl-8-(6-(piperidin-1-yl)pyridin-3-yl)-1,2-dihydroisoquinolin-3-yl)ethyl)amino)pyrido[2,3-d]pyrimidin-5(8H)-one]	59%	31%				
